From ChEMBL document CHEMBL1154018, “Esters of betulin and betulinic acid with amino acids have improved water solubility and are selectively cytotoxic toward cancer cells” (Bioorg Med Chem Lett, 2009)

Columns and labels:
[1] = Induction of apoptosis in human EPP85-181P cells assessed as cell accumulation at apoptotic phase after 24 hrs by comet assay; type: functional
[2] = Cytotoxicity against daunorubicin-resistant human EPG85-257RDB cells after 24 hrs by SRB method; type: functional, cell-based
[3] = Cytotoxicity against human EPG85-257P cells after 24 hrs by SRB method; type: functional, cell-based
[4] = Cytotoxicity against daunorubicin-resistant human EPP85-181RDB cells after 24 hrs by SRB method; type: functional, cell-based
[5] = Induction of apoptosis in human EPG85-257P cells assessed as cell accumulation at apoptotic phase after 24 hrs by comet assay; type: functional
[6] = Aqueous solubility in DMSO solution at 1 mg; type: physicochemical
[7] = Induction of apoptosis in human EPP85-181P cells assessed as normal cells after 24 hrs by comet assay; type: functional
[8] = Cytotoxicity against human EPP85-181P cells after 24 hrs by SRB method; type: functional, cell-based
[9] = Induction of apoptosis in human EPG85-257P cells assessed as normal cells after 24 hrs by comet assay; type: functional
[10] = Chemical stability in 0.02M phosphatre buffer of pH 7.4 after 6 days by RP-HPLC; type: physicochemical; details: pH 7.4, 144 h

SMILES	solubility [6]	Stability [10]	Activity [1] [%]	IC50 [2] [µM]	IC50 [3] [µM]	IC50 [4] [µM]	Activity [5] [%]	Activity [7] [%]	IC50 [8] [µM]	Activity [9] [%]
C=C(C)[C@@H]1CC[C@]2(COC(=O)[C@H](C)N)CC[C@]3(C)[C@H](CC[C@@H]4[C@@]5(C)CC[C@H](O)C(C)(C)[C@@H]5CC[C@]43C)[C@@H]12	Soluble	–	5.2	> 50	38	> 50	42	94	> 50	58
C=C(C)[C@@H]1CC[C@]2(COC(=O)[C@@H](N)CCSC)CC[C@]3(C)[C@H](CC[C@@H]4[C@@]5(C)CC[C@H](OC(=O)[C@@H](N)CCSC)C(C)(C)[C@@H]5CC[C@]43C)[C@@H]12	Soluble	–	24.7	> 50	31	> 50	15.1	75.3	22	84.9
C=C(C)[C@@H]1CC[C@]2(C(=O)O)CC[C@]3(C)[C@H](CC[C@@H]4[C@@]5(C)CC[C@H](OC(=O)[C@@H](N)Cc6ccccc6)C(C)(C)[C@@H]5CC[C@]43C)[C@@H]12	Soluble	–	3.1	> 50	> 50	> 50	2.5	96.9	> 50	97.5
C=C(C)[C@@H]1CC[C@]2(COC(=O)[C@@H](N)Cc3ccccc3)CC[C@]3(C)[C@H](CC[C@@H]4[C@@]5(C)CC[C@H](OC(=O)[C@@H](N)Cc6ccccc6)C(C)(C)[C@@H]5CC[C@]43C)[C@@H]12	Soluble	–	1	> 50	> 50	> 50	9	99	> 50	91
C=C(C)[C@@H]1CC[C@]2(COC(=O)CN)CC[C@]3(C)[C@H](CC[C@@H]4[C@@]5(C)CC[C@H](OC(=O)CN)C(C)(C)[C@@H]5CC[C@]43C)[C@@H]12	Soluble	–	0.5	> 50	> 50	> 50	–	99.5	> 50	–
C=C(C)[C@@H]1CC[C@]2(C(=O)O)CC[C@]3(C)[C@H](CC[C@@H]4[C@@]5(C)CC[C@H](O)C(C)(C)[C@@H]5CC[C@]43C)[C@@H]12 [BETULINIC ACID]	Soluble	–	16	> 50	42	> 50	4	84	32	96
C=C(C)[C@@H]1CC[C@]2(CO)CC[C@]3(C)[C@H](CC[C@@H]4[C@@]5(C)CC[C@H](O)C(C)(C)[C@@H]5CC[C@]43C)[C@@H]12 [BETULIN]	Insoluble	–	2	> 50	26	46	0.5	98	> 50	99.5

Further lines, with some results ahead:

solubility [6]	Stability [10]	SMILES	Activity [1] [%]	IC50 [2] [µM]	IC50 [3] [µM]	IC50 [4] [µM]	Activity [5] [%]	Activity [7] [%]	IC50 [8] [µM]	Activity [9] [%]
Soluble	–	C=C(C)[C@@H]1CC[C@]2(C(=O)O)CC[C@]3(C)[C@H](CC[C@@H]4[C@@]5(C)CC[C@H](OC(=O)[C@@H](N)CC)C(C)(C)[C@@H]5CC[C@]43C)[C@@H]12	69.6	> 50	33	> 50	1.7	30.4	26	98.3
Soluble	–	C=C(C)[C@@H]1CC[C@]2(C(=O)O)CC[C@]3(C)[C@H](CC[C@@H]4[C@@]5(C)CC[C@H](OC(=O)[C@H](C)N)C(C)(C)[C@@H]5CC[C@]43C)[C@@H]12	25.9	> 50	48	> 50	1.4	74.1	> 50	98.6
Soluble	–	C=C(C)[C@@H]1CC[C@]2(C(=O)O)CC[C@]3(C)[C@H](CC[C@@H]4[C@@]5(C)CC[C@H](OC(=O)[C@@H](N)CCCN)C(C)(C)[C@@H]5CC[C@]43C)[C@@H]12	99	> 50	9.7	> 50	–	1	14	–
Soluble	–	C=C(C)[C@@H]1CC[C@]2(COC(=O)[C@H](C)N)CC[C@]3(C)[C@H](CC[C@@H]4[C@@]5(C)CC[C@H](OC(=O)[C@H](C)N)C(C)(C)[C@@H]5CC[C@]43C)[C@@H]12	100	> 50	17	21	100	0	4.6	0
Soluble	Stable	C=C(C)[C@@H]1CC[C@]2(COC(=O)[C@@H](N)CCCCN)CC[C@]3(C)[C@H](CC[C@@H]4[C@@]5(C)CC[C@H](OC(=O)[C@@H](N)CCCCN)C(C)(C)[C@@H]5CC[C@]43C)[C@@H]12	99.5	> 50	4.1	18	100	0.5	3.8	0
Soluble	–	C=C(C)[C@@H]1CC[C@]2(COC(=O)CN)CC[C@]3(C)[C@H](CC[C@@H]4[C@@]5(C)CC[C@H](O)C(C)(C)[C@@H]5CC[C@]43C)[C@@H]12	1.4	> 50	> 50	> 50	9.8	98.6	> 50	90.2
